Legend:
[1] = Metabolic stability in human liver microsomes assessed as half life; format: ADME, Microsome
[2] = Metabolic stability in human liver microsomes assessed as intrinsic clearance; format: ADME, Microsome; settings: read-out: CLH

half-life [1]: 30.4 min | CLint scaled [2]: 41 mL/min/kg
Structure (SMILES): O=C(Nc1ccc(C(F)(F)F)cc1)Nc1c[nH]c2ccc(F)cc12
